These results are taken from US5445941A, “Method for screening anti-osteoporosis agents” (Eli Lilly and Company, priority 1993, dated 1995).

One assay relates to TGFβ-2 mRNA. As to conditions: T-47D and MDA-MB-231; cited from earlier work.
For the next assay, the system named is TGFβ-1 promoter. As to the kind of experiment: CAT reporter expression, TGFβ-1 promoter (phTG12), MG63 cells cotransfected with pRSVER.
For assay [1], the system named is LDL receptor messenger RNA. The following applies: in vivo; cited from earlier work.
In the next assay the test system is TGFβ-3 promoter. As to the kind of experiment: TGFβ-3 promoter transcription in RL59.2, HeLa and COS-1 cells. Format: cell-based, human. The following applies: RL59.2, HeLa and COS-1 (monkey kidney) cells. Here is the method:
Similar assays were performed in human endometrial cancer cells (RL59.2), human cervical cancer cells (HeLa) and monkey kidney cells (COS-1) (American Type Culture Collection, Rockville, Md.).

For another assay, the system named is TGFβ-1 mRNA. The following applies: HEC-50, 1% ctFBS; cited from earlier work.
Assay [2] concerns estrogen responsive element (ERE) of the vitellogenin promoter. As to the kind of experiment: Luciferase reporter induction, pGL2ERELUC (vitellogenin ERE) and pRSVER in MG63 cells. Format: cell-based, human. The following applies: for reporter gene expression, pGL2ERELUC: control 1.7. From the text:
Complementary oligonucleotides corresponding to the estrogen-responsive element (ERE) from the Xenopus laevis vitellogenin Az gene promoter (corresponding to positions -341 to -310; Metzger et al., 1988, Nature 334: 31-36) were designed, synthesized and annealed to form a double-stranded region that is an estrogen responsive element essentially as described in Example I. A sequence comprising an XhoI restriction enzyme recognition site was synthesized to be flanking the ERE sequences, the element having the following nucleotide sequence (shown as SEQ ID NOS:8 and 9, respectively):
The double-stranded ERE was subcloned into XhoI-digested […] (Promega) whereby the luciferase gene was placed under the transcriptional influence of the ERE. This plasmid was designated pGL2ERELUC and used in further experiments as described below (Example VI).
Similar assays were performed using cultures of MG63 cells transiently transfected with pGL2ERELUC and pRSVER.
Transfected cells were treated with varying amounts and combinations of hormones and then rinsed twice with D-PBS. Cells were then lysed upon incubation with 250 μL of eukaryotic cell lysis reagent (as described in Example VI) at 4° C. for 20 min and transferred to microcentrifuge tubes by scraping with a rubber policeman. Cell lysates were centrifuged at 14,000 rpm for 1 minute to remove cell debris. Cell extracts (supernatant) were then assayed for protein content and luciferase activities.
Luciferase assays were performed as follows. 50 μL of each cell extract was added to 100 μL of reagent A buffer (containing 4.0 mM ATP/15 mM MgSO4 / 30 mM tricine buffer (pH 7.8)/ 10 mM DTT) in individual wells of a microtiter plate. 100 μL of 1 mM D(-)-luciferin (in 0.1M KPO4 (pH 7.8); Boehringer Mannheim) were added to each well and the amount of light produced measured by using a ML3000 microtiter plate luminometer (under conditions of integrate flash mode, high gain, integrate window=10 seconds, at a temperature of 22° C.). Luciferase activities were calculated as total light output relative to protein content in each cell lysate sample.

Method for TGFβ-1 promoter: Co-transfection experiments were performed in MG63 (human osteosarcoma) cells, using the ProFection Mammalian Transfection System (Promega). […] The cells were then refed with fresh 3:1 media containing 10% csFBS. Compounds to be evaluated for their ability to modulate reporter gene expression were added at the appropriate times and assayed as described below.
Cultures of MG63 cells were transiently co-transfected with pRSVER plasmid and either phTG12, pTGF-1, or pB2-499 using the ProFection system (Promega). For each transfected cell culture, DNA-containing calcium phosphate precipitates were added dropwise to each culture dish and mixed thoroughly in the media. The pH of the media was carefully maintained between pH 7.2 and pH 7.4. Transfected cell cultures were then incubated overnight in a 5% CO2 atmosphere at 37° C. For all cultures, the precipitate was removed after overnight incubation by aspirating the media from the culture dishes, followed by rinsing each dish twice with D-PBS. For each cotransfected cell line, the buffer was replaced with 10 ml fresh medium containing 10% csFBS and one of the following compositions:
a. 10 μl ethanol (hormone vehicle)=control;
b. 10 μl 17β-estradiol (Sigma) ("estradiol") at a concentration of 10^-4 M in ethanol;
d. 10 μl Tamoxifen (Sigma) at a concentration of 10^-4 M in ethanol.
After 24 h incubation with these hormonal preparations (or the vehicle control), cells were washed twice with D-PBS. The cells were then scraped from the culture dishes using a rubber policeman and 1 ml of D-PBS. Cells were collected by centrifugation at 8,000 rpm for 2 minutes in a tabletop centrifuge (MicroMax Model, IEC, Newark, N.Y.). The supernatant was removed and the cell pellets were resuspended in 150 μL of a 0.25M Tris-HCl solution (pH 7.8). Cells were lysed by three cycles of freezing in a dry ice/ethanol bath and thawing in a water bath at 37° C. water bath (for 3 minutes each cycle). Lysed cell preparations were centrifuged at 15,000 rpm for 5 minutes at 4° C. to remove cell debris. Supernatants containing the soluble cell lysate were transferred to a new set of tubes for assaying chloramphenicol acetyltransferase (CAT) activity.
Before performing CAT assays on such cell lysates, the protein content of each lysate was first determined using a commercially-available assay (BioRad Laboratories, Richmond, Calif.). An amount of each cell lysate containing 100 μg total protein was then mixed with CAT assay buffer (0.4M Tris-HCl (pH 7.8)/ 0.5 mM acetyl-CoA (Boehringer Mannheim)/ 0.1 μCi D-threo-(dichloroacetyl-1,2-[^14 C]-chloramphenicol) for 15 hours. After this incubation, reactions were stopped by vigorously extracting the reaction mixture with 900 μL ethyl acetate. The organic and aqueous phases were separated by brief centrifugation at 14,000 rpm for 1 minute, and approximately 800 μL of the organic phase was transferred to a new set of tubes. Ethyl acetate was evaporated to concentrate the CAT-catalyzed reaction products.
Acetylated and unacetylated chloramphenicol species were resolved by thin layer chromatography using a mixture of 95:5 (v/v) chloroform:methanol as the ascending buffer.

For `C[C@]12CC[C@@H]3c4ccc(O)cc4CC[C@H]3[C@@H]1CC[C@@H]2O` [estradiol, 17β-estradiol], the “TGFβ-2 mRNA expression (in words)” value in the assay with TGFβ-2 mRNA is given as “reduced TGFβ-2 mRNA expression”. For the same compound, the fold induction at 0.1 µM in the assay with TGFβ-1 promoter (Homo sapiens, MG-63, 24 h, read-out: Fold Ind.) came to 0.7. Moreover, in the assay on TGFβ-1 promoter (TGFβ-1 promoter, 10 μl of 10^-4 M in 10 ml medium, 24 h, control […]), the “Act. (relative CAT activity)” value came to 4.7. Moreover, the “response of the TGFβ-1 promoter region (in words)” value in the assay on TGFβ-1 promoter (positions -1032 to +727) is on record as “no response”. Moreover, the “LDL receptor messenger RNA (in words)” value in assay [1] is given as “induces LDL receptor messenger RNA in vivo”. Also, the “transcription initiated by the TGFβ-3 promoter (in words)” value with TGFβ-3 promoter is on record as “induced”. The “TGFβ-1 mRNA concentration (in words)” value in the assay with TGFβ-1 mRNA is recorded as “Decreased concentrations of TGFβ-1 mRNA”. Further, the “induction of vitellogenin gene transcription (in words)” value in assay [2] was “strongly induced”. The “reporter gene expression, pGL2ERELUC” value was 6.5 in assay [2] (10^-5 M); 6.2 in assay [2] (10^-6 M); 5.9 in assay [2] (10^-7 M); 5.5 in assay [2] (10^-8 M); 5.8 in assay [2] (10^-9 M).
